The values below are quoted from earlier work in article PMC9289467, “A Novel Multifunctional 5,6-Dimethoxy-Indanone-Chalcone-Carbamate Hybrids Alleviates Cognitive Decline in Alzheimer’s Disease by Dual Inhibition of Acetylcholinesterase and Inflammation” (Frontiers in Aging Neuroscience, 2022).

In data set [1] the test system is cerebrospinal fluid (CSF) Aβ. As to conditions: chronic treatment, patients with AD; ref Nitsch et al., 2000; cited from earlier work.
The test system of a further data set is APP processing. The note with it: rat brains; ref Farber et al., 1995; cited from earlier work.
Data set [2] relates to AChE-induced Aβ fibrillization. As to conditions: PAS inhibitors; ref Inestrosa et al., 1996; cited from earlier work.

As for `CNC(=O)Oc1ccc2c(c1)[C@]1(C)CCN(C)[C@@H]1N2C` [physostigmine], the “cerebrospinal fluid (CSF) Aβ levels” value in data set [1] is given as “did not show a significant effect”. Moreover, the APP processing result in the data set on APP processing is listed as “did not change APP processing”.

As to `CC[N+](C)(CC)CCC[n+]1c(-c2ccccc2)c2cc(N)ccc2c2ccc(N)cc21` [Propidium], the “effect of AChE on Aβ fibril aggregation process” value in data set [2] was “capable of preventing”.

For fasciculin, in data set [2], the “effect of AChE on Aβ fibril aggregation process” value is listed as “capable of preventing”.

Regarding `CC1OC2(CS1)CN1CCC2CC1` (centres unmarked) [AF102B], the “cerebrospinal fluid (CSF) Aβ levels” value in data set [1] was “markedly lowered”.
